Earlier results, collected in article PMC12141164, “Phase-1 study of vamotinib (PF-114), a 3rd generation BCR::ABL1 tyrosine kinase-inhibitor, in chronic myeloid leukaemia” (Annals of Hematology, 2025).
Read-outs that look alike come from different tables or passages of the source.

Columns and labels:
Conditions in all cases: cited from earlier work
ZAK = tested on: ZAK
EPHA6 = tested on: EPHA6
TAK1 = tested on: TAK1
EPHA7 = tested on: EPHA7
TIE2 = tested on: TIE2
PDGFRa = tested on: PDGFRa
VEGFR2 = tested on: VEGFR2
[1] = parameters: method as in PMID 35982483

Row | Compound | inhibition of ZAK (ZAK) | inhibition of EPHA6 (EPHA6) | inhibition of TAK1 (TAK1) | inhibition of EPHA7 (EPHA7) | inhibition of TIE2 (TIE2) | inhibition of PDGFRa (PDGFRa; off-target kinases) | inhibition of VEGFR2 (VEGFR2) | most common non-hematologic adverse reaction ([1]; clinical evaluation) | drug related cardiovascular adverse events ([1]; recent clinical studies) | inhibition of ZAK (ZAK; kinase inhibition profiles) | inhibition of EPHA6 (EPHA6; kinase inhibition profiles) | inhibition of TAK1 (TAK1; kinase inhibition profiles) | inhibition of EPHA7 (EPHA7; kinase inhibition profiles) | inhibition of TIE2 (TIE2; kinase inhibition profiles) | inhibition of PDGFRa (PDGFRa; kinase inhibition profiles) | inhibition of VEGFR2 (VEGFR2; kinase inhibition profiles)
1 | Cc1ccc(C(=O)Nc2ccc(CN3CCN(C)CC3)c(C(F)(F)F)c2)cc1C#Cc1cnc2[nH]ncc2c1 [olverembatinib] | potent inhibitor | not | potent inhibitor | not | potent inhibitor | among the off-target kinases | not | skin pigmentation | some drug related cardiovascular adverse events, including vascular occlusions |  |  |  |  |  |  | 
2 | Cc1ccc(C(=O)Nc2ccc(CN3CCN(C)CC3)c(C(F)(F)F)c2)cc1C#Cc1cnc2cccnn12 [ponatinib] |  |  |  |  |  |  |  |  |  | inhibition | inhibition | inhibition | inhibition | inhibition | potently inhibited | inhibition
